Series [1] deals with T1, crude receptor membrane fractions of porcine aorta (^125 I-endothelin binding) (Sus scrofa, UniProt Q29010).
T1 construct: tissue Pel-Freez Biologicals (U.S.A.); host or cells: porcine aorta, crude membrane fractions
T1 sequence (Q29010 21-427): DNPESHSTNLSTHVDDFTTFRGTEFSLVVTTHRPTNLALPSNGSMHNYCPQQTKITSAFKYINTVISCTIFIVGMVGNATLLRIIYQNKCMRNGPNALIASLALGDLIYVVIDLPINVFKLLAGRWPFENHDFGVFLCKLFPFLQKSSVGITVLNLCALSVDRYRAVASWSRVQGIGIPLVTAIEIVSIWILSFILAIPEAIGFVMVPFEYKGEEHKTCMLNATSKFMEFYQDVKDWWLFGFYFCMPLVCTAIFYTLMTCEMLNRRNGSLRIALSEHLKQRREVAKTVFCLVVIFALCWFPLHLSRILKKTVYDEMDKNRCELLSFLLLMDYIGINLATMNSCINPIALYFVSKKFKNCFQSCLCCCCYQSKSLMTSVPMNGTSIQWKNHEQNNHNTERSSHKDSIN
The experiment in a line: Radioligand binding assay (^125 I-Endothelin binding to porcine aorta membrane fractions). As to conditions: for IC50: concentration required to compete with ^125 I-endothelin (1.67×10^-11 M) for binding to porcine aorta membrane fractions by 50%, 60 minutes, room temperature, pH 7.5. The protocol:
Radioligand Binding Assay
(a) Preparation of crude receptor membrane fractions
Porcine aorta was purchased from Pel-Freez Biologicals (U.S.A.) and stored at -80° C. until use.
Porcine aorta (50 g) was thawed and dissected free from fatty tissue, minced with scissors and then homogenized with a polytron (Brinkmann PT-20, maximal speed for 3×10 sec) in 100 ml buffer (0.25 M sucrose, 10 mM Tris-HCl, 0.1 mM EDTA, pH 7.5).
The homogenate was centrifuged at 10,000 g for 20 minutes at 4° C.
The supernatant, containing the plasma membrane fraction, was centrifuged at 100,000 g for 60 minutes at 4° C., and then resultant pellets were referred to as crude membrane fractions.
The pellets were resuspended in 25 ml of binding assay buffer (50 mM Tris-HCl, 100 mM NaCl, 5 mM MgCl2, 1.5 μg/ml phenylmethylsulfonyl fluoride (PMSF), 120 μg/ml bacitracin, 12 μg/ml leupepcin, 6 μg/ml chymostain, 0.1% bovine serum albumin (BSA), pH 7.5)
The aorta membrane fractions were stored at -80° C. until use.
(b) ^125 I-Endothelin Binding Assay
^125 I-Endothelin (1.67×10^-11 M) (Amersham Japan, specific activity: 2000 Ci/m mol) was incubated with 50 μl of the aorta membrane fractions in binding assay buffer at room temperature (20°-22° C.) for 60 minutes in a final volume of 250 μl.
After incubation, the incubation mixture were filtered through Glass-fiber GF/C filter (pretreated with 0.1% polyethylene imine for 3 hours prior to use) using cell harvester (Brandel M-245). The filters were then washed ten times with a total of 3 ml of the washing buffer (50 mM Tris-HCl, pH 7.5) at 0° C. The filters were counted in a gamma counter (Packard Auto Gamma Model 5650).
The activity of test compounds was expressed as IC50 value, i.e. concentration required to compete with ^125 I-endothelin for binding to prorcine aorta membrane fractions by 50%.

Another series in a line: Solubility. It is filed as physicochemical.
Series [2] concerns contraction response of rabbit thoracic aorta induced by endothelin. In words: Effect on rabbit aorta contraction response of endothelin (isolated strips). As to conditions: Oryctolagus cuniculus, endothelin 3.2×10^-9 M, % inhibition of maximum contraction, compound added after full contraction; for inhibition at 100 µM: 1 × 10^-4 M; for inhibition at 10 µM: 1 × 10^-5 M. Set-up: species or system rabbit (male albino). The protocol:
Effect of FR901366 Substance and FR901367 Substance on Rabbit Aorta of Contraction Response of Endothelin
Thoracic aorta were isolated from freshly killed male albino rabbits (11 weeks old) and cut into 25 mm strips with the intima denuded. After removing fatty tissues, these arterial segments (2 mm width and 25 mm length) were suspended in 25 ml organ chambers filled with Krebs-Ringer solution (113 mM NaCl, 4.8 mM KCl, 2.2 mM CaCl2, 1.2 mM MgCl2, 25 mM NaHCO3, 1.2 mM KH2 PO4, 5.5 mM glucose) maintained at 37° C. and gassed with 95% O2 /5% CO2.
A preload of 1 g was applied after the aorta had been conditioned by application of increasing concentration of KCl. Contractions were measured as an increase in isometric tension.
The test compound was tested against contraction response of endothelin (3.2×10^-9 M). Synthetic endothelin was obtained from Peptide Institute Inc. (Osaka, Japan). The test compound substance was added after the full contraction response induced endothelin.
The activity of the test compounds is expressed as the percentage inhibition of maximum contraction response induced by endothelin and shown in Table 7.

The subject of series [3] is endothelin induced pressor response. In words: In vivo pressor effect in conscious rats (inhibition of endothelin induced pressor response). As to conditions: 10 mg/kg i.v., 3 minutes before endothelin 2.4 μg/kg i.v., three rats. More on the design: species or system rat (male Wister). The protocol:
Assay of In Vivo Pressor Effect in Conscious Rats
Male Wister rats (10 weeks old) were used. The mean arterial blood pressure was recorded from femoral artery via polyethylene catheter connected to the pressure transducer which was coupled to a Biophysiograph 180 system (Nihondenki-San-Ei Instrument Co., Ltd.).
FR901366 substance and endothelin were dissolved in saline and injected in bolus (0.2 ml) through polyethylene cateter inserted via femoral vein.
FR901366 substance was administered 3 minutes before the injection of endothelin. Inhibitory activity of FR90136 substance (10 mg/kg, i. v.) against endothelin (2.4 μg/kg, i. v.) induced pressor response was evaluated with a group of three rats and shown in Table 8.

Consider 18 compounds from patent US5187195A, “Anthraquinone derivatives and preparation thereof” (Fujisawa Pharmaceutical Co., Ltd., priority 1989, dated 1993).

Regarding `COC(=O)C(CSC12C(=O)c3c(O)cccc3C(=O)C1(O)C1(O)C(=O)C=C(C)CC1(O)CC2O)NC(C)=O` (centres unmarked) [FR129795], in series [1], the IC50 was 2.73 µM.
Same read-out and setting: the figure for `COC(=O)C(CSC12C(=O)c3c(O)cccc3C(=O)C1(O)C1(O)C(=O)C=C(C)CC1(O)CC2OC(C)=O)NC(C)=O` (centres unmarked) [FR129796] is 13.5 µM.
As to `COC(=O)C(CSC12C(=O)c3c(OC(C)=O)cccc3C(=O)C1(O)C1(O)C(=O)C=C(C)CC1(O)CC2OC(C)=O)NC(C)=O` (centres unmarked) [FR129797], the half-inhibitory concentration (IC50) in series [1] is 10.3 µM.
Turning to `CC1=CC(=O)C2(O)C(O)(CCC3(SCC(N)C(=O)O)C(=O)c4c(O)cccc4C(=O)C32O)C1` (centres unmarked) [FR131132], the Solubility result in “Solubility” (chloroform) was “insoluble”; in “Solubility” (ethanol), “sparingly soluble”; in “Solubility” (methanol), “sparingly soluble”; in the series “Solubility” (n-hexane), “insoluble”; in “Solubility” (water), “sparingly soluble”. Further, the IC50 in series [1] was 147 µM.
Turning to `CC1=CC(=O)C2(O)C(O)(CCC3(SCC(NC(=O)c4ccccc4)C(=O)O)C(=O)c4c(O)cccc4C(=O)C32O)C1` (centres unmarked) [FR131661], the IC50 in series [1] was 22 µM.
Still for that read-out and setting: with `CC1=CC(=O)C2(O)C(O)(CCC3(SCC(NC(=O)OC(C)(C)C)C(=O)O)C(=O)c4c(O)cccc4C(=O)C32O)C1` (centres unmarked) [FR131662] the figure was 4.33 µM; with `CC1=CC(=O)C2(O)C(O)(CCC3(SCC(NC(=O)Cc4ccc(Cl)cc4)C(=O)O)C(=O)c4c(O)cccc4C(=O)C32O)C1` (centres unmarked) [FR131663], 38.7 µM; with `CC1=CC(=O)C2(O)C(O)(CCC3(SCC(NC(=O)C(C)C)C(=O)O)C(=O)c4c(O)cccc4C(=O)C32O)C1` (centres unmarked) [FR131667], 106 µM.
For `CCCCCC(=O)NC(CSC12CCC3(O)CC(C)=CC(=O)C3(O)C1(O)C(=O)c1cccc(O)c1C2=O)C(=O)O` (centres unmarked) [FR131668], in series [1], the IC50 was 17 µM.
Still for that read-out and setting: with `COC(=O)C(CSC12CCC3(O)CC(C)=CC(=O)C3(O)C1(O)C(=O)c1cccc(O)c1C2=O)NC(C)=O` (centres unmarked) [FR134624] the figure was 10.5 µM; with `COC(=O)C(CSC12CCC3(OC(C)=O)CC(C)=CC(=O)C3(OC(C)=O)C1(OC(C)=O)C(=O)c1cccc(OC(C)=O)c1C2=O)NC(C)=O` (centres unmarked) [FR134625], 356 µM.
Compound `CC(=O)NC(CSC12CCC3(O)CC(C)=CC(=O)C3(O)C1(O)C(=O)c1cccc(O)c1C2=O)C(=O)NCCO` (centres unmarked) [FR134761] showed an IC50 in series [1] of 10.3 µM.
On the same count and under the same terms, with `COC(=O)[C@H](Cc1c[nH]c2ccccc12)NC(=O)C(CSC12CCC3(O)CC(C)=CC(=O)C3(O)C1(O)C(=O)c1cccc(O)c1C2=O)NC(C)=O` (some centres unmarked) [FR134762] the figure was 11.9 µM; with `CC[C@H](C)[C@H](NC(=O)C(CSC12CCC3(O)CC(C)=CC(=O)C3(O)C1(O)C(=O)c1cccc(O)c1C2=O)NC(C)=O)C(=O)N[C@@H](Cc1c[nH]c2ccccc12)C(=O)OC` (some centres unmarked) [FR134763], 37.2 µM; with `CC[C@H](C)[C@H](NC(=O)C(CSC12CCC3(O)CC(C)=CC(=O)C3(O)C1(O)C(=O)c1cccc(O)c1C2=O)NC(C)=O)C(=O)N[C@@H](Cc1c[nH]c2ccccc12)C(=O)O` (some centres unmarked) [FR134764], 12 µM.
As for `CC1=CC(=O)C2(O)C(O)(C1)CC(O)C1(SCC(N)C(=O)O)C(=O)c3c(O)cccc3C(=O)C12O` (centres unmarked) [FR134851], the Solubility entry is “insoluble” in the series “Solubility” (chloroform); “soluble” in “Solubility” (ethanol); “soluble” in “Solubility” (methanol); “insoluble” in “Solubility” (n-hexane); “sparingly soluble” in “Solubility” (water). This compound had an IC50 in series [1] of 20.7 µM.
Consider `CC(=O)NC(CSC12CCC3(O)CC(C)=CC(=O)C3(O)C1(O)C(=O)c1cccc(O)c1C2=O)C(=O)O` (centres unmarked) [FR901366], for which the Solubility entry in the series “Solubility” (acetone) is given as “soluble”; in “Solubility” (chloroform), “sparingly soluble”; in the series “Solubility” (hexane), “insoluble”; in “Solubility” (methanol) it was “soluble”; in the series “Solubility” (water), “insoluble”. This compound also had an inhibition at 100 µM in series [2] of 39%. This compound also had an inhibition at 10 µM in series [2] of 15%. Also, the “Inhibition of endothelin pressor response” value in series [3] (5 min after administration) is listed as 27.2%; in series [3] (10 min after administration) it was 50.0%; in series [3] (20 min after administration) it was 63.3%; in series [3] (30 min after administration), 53.8%; in series [3] (60 min after administration), 66.6%; in series [3] (120 min after administration), 50.0%. In addition, the IC50 in series [1] was 5.97 µM.
Consider `CC(=O)NC(CSC12C(=O)c3c(O)cccc3C(=O)C1(O)C1(O)C(=O)C=C(C)CC1(O)CC2O)C(=O)O` (centres unmarked) [FR901367], for which the Solubility result was “sparingly soluble” in “Solubility” (acetone); “soluble” in the series “Solubility” (ethanol); “sparingly soluble” in the series “Solubility” (ethyl acetate); “soluble” in the series “Solubility” (methanol); “insoluble” in “Solubility” (n-hexane); “sparingly soluble” in the series “Solubility” (water). Testing at 100 µM in series [2] gave an inhibition of 75%. Besides, the inhibition at 10 µM in series [2] came to 38.6%. This compound also showed an IC50 in series [1] of 0.672 µM. Besides, the “competition with ^125 I-endothelin for binding to porcine aorta membrane fractions” value in series [1] (result in words) is given as “competes with ^125 I-endothelin for binding”.
